# Data from patent US20110160196A1, “FACTOR XA INHIBITORS” (Millennium Pharmaceuticals, Inc., priority 2007, published 2011).
# Target: T1, human plasma protein factor Xa (Homo sapiens, UniProt P00742)
# T1 construct: The human plasma protein factor Xa was purchased; purchased Haematologic Technologies (Essex Junction, Vt.); host or cells: human plasma
# Experiment: Factor Xa IC50 determination (cleavage of paranitroanilide substrate S-2765)
# Assay type: biochemical
# Conditions: factor Xa 1 nM, S-2765 100 μM, Tris buffered saline pH 7.4, read at 405 nm
# Description: This example illustrates methods for evaluating the compounds of the invention, along with results obtained for such assays. The in vitro and in vivo human Factor Xa activities of the inventive compounds can be determined by various procedures known in the art, such as a test for their ability to inhibit the activity of human plasma Factor Xa. […] The IC50 value is the concentration (in nM) of the compound required to provide 50% inhibition of human Factor Xa proteolytic activity.
# An in vitro assay for detecting and measuring inhibition activity against Factor Xa is as follows:
# The substrate S-2765 (Z-D-Arg-Gly-Arg-pNA.HCl) was obtained from Diapharma (West Chester, Ohio).
# The human plasma protein factor Xa was purchased from Haematologic Technologies (Essex Junction, Vt.).
# All assays, which are performed in 96-well microtiter plates, measure proteolytic activity of the enzyme (factor Xa) by following cleavage of a paranitroanilide peptide substrate. The assay buffer used for proteolytic assays was Tris buffered saline (20 mM Tris, 150 mM NaCl, 5 mM CaCl2, 0.1% Bovine serum albumin (BSA), 5% Dimethly Sulfoxide (DMSO) pH 7.4). In a 96-well microtiter plate, inhibitor was serially diluted to give a range of final concentrations from 0.01 nM to 10 μM. Duplicate sets of wells were assayed and control wells without inhibitor were included. Enzyme was added to each well, (factor Xa concentration=1 nM), the plate was shaken for 5 seconds and then incubated for 5 minutes at room temperature. S-2765 was added (100 μM final) and the plate was shaken for 5 seconds (final volume in each well was 200 μl). The degree of substrate hydrolysis was measured at 405 nm on a Thermomax plate reader (Molecular Devices, Sunnyvale, Calif.) for 2 minutes. The initial velocities of substrate cleavage (mOD/min), for each range of inhibitor concentrations, were fitted to a four parameter equation using Softmax data analysis software. The parameter C, derived from the resulting curve-fit, corresponded to the concentration for half maximal inhibition (IC50).
# T1 sequence (P00742 235-488 limits assumed): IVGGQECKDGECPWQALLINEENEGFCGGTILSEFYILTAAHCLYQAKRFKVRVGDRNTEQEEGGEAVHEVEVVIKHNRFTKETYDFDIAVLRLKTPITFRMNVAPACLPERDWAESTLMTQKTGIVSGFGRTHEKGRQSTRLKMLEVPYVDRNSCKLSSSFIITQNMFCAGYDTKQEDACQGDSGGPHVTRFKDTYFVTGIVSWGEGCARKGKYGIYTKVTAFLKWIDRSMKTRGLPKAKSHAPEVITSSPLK
# T1 sequence (P00742 41-179 partner limits assumed): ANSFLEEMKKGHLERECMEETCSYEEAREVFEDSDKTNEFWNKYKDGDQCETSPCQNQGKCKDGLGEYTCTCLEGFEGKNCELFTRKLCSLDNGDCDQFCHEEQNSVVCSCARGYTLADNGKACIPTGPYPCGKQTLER
row,SMILES,IC50 [nM]
1,"O=C(NCc1cn(-c2ccc(-n3ccccc3=O)cc2N2CCCC2=O)nn1)c1ccc(Cl)s1 [Compound 43, 5-Chloro-N-((1-(4-(2-oxopyridin-1(2H)-yl)-2-(2-oxopyrrolidin-1-yl)phenyl)-1H-1,2,3-triazol-4-yl)methyl)thiophene-2-carboxamide]",≤ 100
2,"O=C(NCc1cn(-c2ccc(-n3ccccc3=O)cc2[N+](=O)[O-])nn1)c1ccc(Cl)s1 [Compound 44, 5-ChIoro-N-((1-(2-nitro-4-(2-oxopyridin-1(2H)-yl)phenyl)-1H-1,2,3-triazol-4-yl)methyl)thiophene-2-carboxamide]",≤ 100
3,"Nc1cc(-n2ccccc2=O)ccc1-n1cc(CNC(=O)c2ccc(Cl)s2)nn1 [Compound 45, N-((1-(2-Amino-4-(2-oxopyridin-1(2H)-yl)phenyl)-1H-1,2,3-triazol-4-yl)methyl)-5-chlorothiophene-2-carboxamide]",≤ 100
4,"CSc1cc(-n2ccccc2=O)ccc1-n1cc(CNC(=O)c2ccc(Cl)s2)nn1 [Compound 50, 5-Chloro-N-((1-(2-(methylthio)-4-(2-oxopyridin-1(2H)-yl)phenyl)-1H-1,2,3-triazol-4-yl)methyl)thiophene-2-carboxamide]",≤ 100
5,"C[S+]([O-])c1cc(-n2ccccc2=O)ccc1-n1cc(CNC(=O)c2ccc(Cl)s2)nn1 (stereo not drawn) [Compound 51, 5-Chloro-N-((1-(2-(methylsulfoxy)-4-(2-oxopyridin-1(2H)-yl)phenyl)-1H-1,2,3-triazol-4-yl)methyl)thiophene-2-carboxamide]",≤ 100
6,"CS(=O)(=O)c1cc(-n2ccccc2=O)ccc1-n1cc(CNC(=O)c2ccc(Cl)s2)nn1 [Compound 52, 5-Chloro-N-((1-(2-(methylsulfonyl)-4-(2-oxopyridin-1(2H)-yl)phenyl)-1H-1,2,3-triazol-4-yl)methyl)thiophene-2-carboxamide]",≤ 100
7,"NCCSc1cc(-n2ccccc2=O)ccc1-n1cc(CNC(=O)c2ccc(Cl)s2)nn1 [Compound 53, N-((1-(2-(2-Aminoethylthio)-4-(2-oxopyridin-1(2H)-yl)phenyl)-lH-1,2,3-triazol-4-yl)methyl)-5-chlorothiophene-2-carboxamide]",≤ 100
8,"NCC[S+]([O-])c1cc(-n2ccccc2=O)ccc1-n1cc(CNC(=O)c2ccc(Cl)s2)nn1 (stereo not drawn) [Compound 54, N-((1-(2-(2-Aminoethylsulfoxy)-4-(2-oxopyridin-1(2H)-yl)phenyl)-1H-1,2,3-triazol-4-yl)methyl)-5-chlorothiophene-2-carboxamide]",≤ 100
9,"COc1cc(-n2ccccc2=O)ccc1-n1cc(CNC(=O)c2ccc(Cl)s2)nn1 [Compound 56, 5-Chloro-N-((1-(2-methoxy-4-(2-oxopyridin-1(2H)-yl)phenyl)-1H-1,2,3-triazol-4-yl)methyl)thiophene-2-carboxamide]",≤ 100
10,"O=C(NCc1cn(-c2ccc(-n3ccccc3=O)cc2OC2CCNCC2)nn1)c1ccc(Cl)s1 [Compound 57, 5-Chloro-N-((1-(4-(2-oxopyridin-1(2H)-yl)-2-(piperidin-4-yloxy)phenyl)-1H-1,2,3-triazol-4-yl)methyl)thiophene-2-carboxamide]",≤ 100
11,"O=C(NCc1cn(-c2ccc(-n3ccccc3=O)cc2Oc2ccncc2)nn1)c1ccc(Cl)s1 [Compound 63, 5-Chloro-N-((1-(4-(2-oxopyridin-1(2H)-yl)-2-(pyridin-4-yloxy)phenyl)-1H-1,2,3-triazol-4-yl)methyl)thiophene-2-carboxamide]",≤ 100
12,"O=C(NCc1cn(-c2ccc(-n3ccccc3=O)cc2Oc2cccnc2)nn1)c1ccc(Cl)s1 [Compound 64, 5-Chloro-N-((1-(4-(2-oxopyridin-1(2H)-yl)-2-(pyridin-3-yloxy)phenyl)-1H-1,2,3-triazol-4-yl)methyl)thiophene-2-carboxamide]",≤ 100
13,"O=C(NCc1cn(-c2ccc(-n3ccccc3=O)cc2OCCCN2C(=O)c3ccccc3C2=O)nn1)c1ccc(Cl)s1 [Compound 67, 5-Chloro-N-((1-(2-(3-(1,3-dioxoisoindolin-2-yl)propoxy)-4-(2-oxopyridin-1(2H)-yl)phenyl)-1H-1,2,3-triazol-4-yl)methyl)thiophene-2-carboxamide]",≤ 100
14,"NCCCOc1cc(-n2ccccc2=O)ccc1-n1cc(CNC(=O)c2ccc(Cl)s2)nn1 [Compound 68, N-((1-(2-(3-Aminopropoxy)-4-(2-oxopyridin-1(2H)-yl)phenyl)-1H-1,2,3-triazol-4-yl)methyl)-5-chlorothiophene-2-carboxamide]",≤ 100
15,"O=C(NCc1cn(-c2ccc(-n3ccccc3=O)cc2OCCCO)nn1)c1ccc(Cl)s1 [Compound 74, 5-Chloro-N-((1-(2-(3-hydroxypropoxy)-4-(2-oxopyridin-1(2H)-yl)phenyl)-1H-1,2,3-triazol-4-yl)methyl)thiophene-2-carboxamide]",≤ 100
16,"O=C(NCc1cn(-c2ccc(-n3ccccc3=O)cc2OCCO)nn1)c1ccc(Cl)s1 [Compound 75, 5-Chloro-N-((1-(2-(2-hydroxyethoxy)-4-(2-oxopyridin-1(2H)-yl)phenyl)-1H-1,2,3-triazol-4-yl)methyl)thiophene-2-carboxamide]",≤ 100
17,"COCCOc1cc(-n2ccccc2=O)ccc1-n1cc(CNC(=O)c2ccc(Cl)s2)nn1 [Compound 76, 5-Chloro-N-((1-(2-(2-methoxyethoxy)-4-(2-oxopyridin-1(2H)-yl)phenyl)-1H-1,2,3-triazol-4-yl)methyl)thiophene-2-carboxamide]",≤ 100
18,"O=C(NCc1cn(-c2ccc(-n3ccccc3=O)cc2OC[C@H](O)CO)nn1)c1ccc(Cl)s1 [Compound 78, 5-Chloro-N-((1-(2-((R)-2,3-dihydroxypropoxy)-4-(2-oxopyridin-1(2H)-yl)phenyl)-1H-1,2,3-triazol-4-yl)methyl)thiophene-2-carboxamide]",≤ 100
19,"O=C(NCc1cn(-c2ccc(-n3ccccc3=O)cc2OC[C@@H](O)CO)nn1)c1ccc(Cl)s1 [Compound 79, 5-Chloro-N-((1-(2-((S)-2,3-dihydroxypropoxy)-4-(2-oxopyridin-1(2H)-yl)phenyl)-1H-1,2,3-triazol-4-yl)methyl)thiophene-2-carboxamide]",≤ 100
20,"CS(=O)(=O)CCOc1cc(-n2ccccc2=O)ccc1-n1cc(CNC(=O)c2ccc(Cl)s2)nn1 [Compound 80, 5-Chloro-N-((1-(2-(2-(methylsulfonyl)ethoxy)-4-(2-oxopyridin-1(2H)-yl)phenyl)-1H-1,2,3-triazol-4-yl)methyl)thiophene-2-carboxamide]",≤ 100
21,"CCS(=O)(=O)CCOc1cc(-n2ccccc2=O)ccc1-n1cc(CNC(=O)c2ccc(Cl)s2)nn1 [Compound 82, 5-Chloro-N-((1-(2-(2-(ethylsulfonyl)ethoxy)-4-(2-oxopyridin-1(2H)-yl)phenyl)-1H-1,2,3-triazol-4-yl)methyl)thiophene-2-carboxamide]",≤ 100
22,"CS(=O)(=O)CCCOc1cc(-n2ccccc2=O)ccc1-n1cc(CNC(=O)c2ccc(Cl)s2)nn1 [Compound 83, 5-Chloro-N-((1-(2-(3-(methylsulfonyl)propoxy)-4-(2-oxopyridin-1(2H)-yl)phenyl)-1H-1,2,3-triazol-4-yl)methyl)thiophene-2-carboxamide]",≤ 100
23,CN(C)CCOc1cc(-n2ccccc2=O)ccc1-n1cc(CNC(=O)c2ccc(Cl)s2)nn1 [Compound 85],≤ 100
24,CN(C)CC[N+](C)(C)CCOc1cc(-n2ccccc2=O)ccc1-n1cc(CNC(=O)c2ccc(Cl)s2)nn1 [Compound 86],≤ 100
